The values below come from patent US7820655B2, “Ethanol or 1,2-ethanediol cyclohexyl antibiotic derivatives” (Actelion Pharmaceuticals Ltd., priority 2006, dated 2010).

In brackets after ≈: the same amount, converted by molar mass.

Holding throughout (type): cell-based
The subject of one experiment is S. Pneumoniae 49619. Kind of experiment: MIC by broth microdilution (NCCLS), S. Pneumoniae 49619. The note with it: Streptococcus pneumoniae, cation-adjusted Mueller-Hinton Broth, pH 7.2-7.3. As to the method:
(§1) These assays have been performed following the description given in “Methods for dilution Antimicrobial Susceptibility Tests for Bacteria that Grow Aerobically, 4th ed.; Approved standard: NCCLS Document M7-A4; National Committee for Clinical Laboratory Standards Villanova, Pa., USA, 1997”. Minimal inhibitory concentrations (MICs; mg/l) were determined in cation-adjusted Mueller-Hinton Broth (BBL) by a microdilution method following NCCLS guidelines (National Committee for Clinical Laboratory Standards. Methods for Dilution Antimicrobial Susceptibility). The pH of the test medium was 7.2-7.3.
Background: In broth dilution the organism is exposed to a series of concentrations in liquid medium.

The next experiment has as its system M. catarrhalis A894. Kind of experiment: MIC by broth microdilution (NCCLS), M. catarrhalis A894. The conditions noted are these: Moraxella catarrhalis, cation-adjusted Mueller-Hinton Broth, pH 7.2-7.3. On the procedure:
as §1

The subject of another experiment is S. aureus A798. Kind of experiment: MIC by broth microdilution (NCCLS), S. aureus A798. The note with it: Staphylococcus aureus, cation-adjusted Mueller-Hinton Broth, pH 7.2-7.3. On the procedure: as §1

Take `COc1ccc2nccc([C@@H](O)[C@H](O)[C@H]3CC[C@H](NCc4ccc5c(n4)NC(=O)CS5)CC3)c2n1` [Example 3, 6-(trans-{4-[(1R,2R)-1,2-dihydroxy-2-(6-methoxy-[1,5]naphthyridin-4-yl)-ethyl]-cyclohexylamino}-methyl)-4H-pyrido[3,2-b][1,4]thiazin-3-one]: the MIC was 0.063 µg/mL (≈ 0.127 µM) against S. Pneumoniae 49619, not above 0.031 µg/mL against M. catarrhalis A894 and not above 0.031 µg/mL in the experiment with S. aureus A798.

For the compound `COc1cnc2cccc([C@@H](O)[C@H](O)[C@H]3CC[C@H](NC/C=C/c4cc(F)ccc4F)CC3)c2n1` [Example 10, (1R,2R)-1-{trans-4-[(E)-3-(2,5-difluoro-phenyl)-allylamino]-cyclohexyl}-2-(3-methoxy-quinoxalin-5-yl)-ethane-1,2-diol], the MIC against S. Pneumoniae 49619 is 0.063 µg/mL (≈ 0.134 µM); against M. catarrhalis A894 it was not above 0.031 µg/mL; against S. aureus A798 it was not above 0.031 µg/mL.

As to `COc1ccc2nccc(C[C@@H](O)[C@H]3CC[C@H](NCc4ccc5c(n4)NC(=O)CO5)CC3)c2n1` [Example 12, 6-(trans{4-[1-(1R)-hydroxy-2-(6-methoxy-[1,5]naphthyridin-4-yl)-ethyl]-cyclohexylamino}-methyl)-4H-pyrido[3,2-b][1,4]oxazin-3-one], the MIC was 0.125 µg/mL (≈ 0.27 µM) in the experiment with S. Pneumoniae 49619, 0.031 µg/mL (≈ 0.0669 µM) with M. catarrhalis A894 and 0.063 µg/mL (≈ 0.136 µM) in the experiment with S. aureus A798.

As a reminder, the MIC is the lowest concentration found to suppress growth. High values mean weaker potency, low ones greater potency.
